Measurements from US10996215B2, “Methods for determining drug efficacy for the treatment of diffuse large B-cell lymphoma, multiple myeloma, and myeloid cancers” (CELGENE CORPORATION, priority 2013, dated 2021).

Assays:
Aiolos, Ikaros, ZFP91 [1] = assay: Western blot in myeloma, lymphoma and primary B cells; format: cell-based; conditions: U266, DF15, RPMI8226, OCI-LY10, WSU-DLCL2, WSU-DLCL2 Compound A resistant, primary B cells; 8 hours
Procedure: Multiple myeloma cells (U266, DF15, RPMI8226), diffuse large B cell lymphoma cells (OCI-LY10, WSU-DLCL2, WSU-DLCL2 Compound A resistant), and primary B cells were treated with DMSO, […] or […] for 8 hours. Cells were harvested and were treated in cell lysis buffer to generate cell lysates. Proteins from cell lysate were separated by gel electrophoresis (10% SDS-PAGE) and transferred to nitrocellulose membranes. Immunoblots were then probed with antibodies recognizing Aiolos, CRBN, Ikaros, ZFP91 (LSBio), IRF4, IRF7, Myc, and β-actin (Li-Cor).

ABC-DLBCL cell line = assay: Tandem Mass Tag proteomics, lenalidomide vs Compound A; format: cell-based; conditions: 24 h
Description: Cells were harvested and proteins were fractionated using a basic pH reverse gradient method. Fractionated samples were labeled using a Tandem Mass Tag method.

IRF7, IFN response = assay: IFN response, Western blot of IRF7 in U2932 (ABC) cells; format: cell-based
Procedure: U2932 (ABC) cells were cultured and cell-passaged long-term in Compound A as described in Section 6.10. Levels of Aiolos, IRF7, and β-actin (control) were assessed using Western blotting, essentially as described above in Section 6.8.

[2] = test system: Aiolos, Ikaros, IRF4, Cereblon; assay: Western blot of Aiolos, Ikaros, IRF4, Cereblon in DLBCL cell lines; format: cell-based, human
Procedure: Immunoblots were probed with antibodies recognizing: Aiolos, Ikaros, Cereblon, IRF4, c-myc, CD44, EZH2, EBF 1, PU. 1, and β-actin. Signals were detected with a LI-COR imager
The following steps can be performed to harvest cells in preparation for Western Blot analysis. The steps are performed on ice and any centrifugation is performed in a 4° C. refrigerated centrifuge. RIPA lysis buffer (Pierce, cat #89900) is first prepared by adding […] proteinase inhibitors (Pierce, cat #78443) to 1 mL of RIPA buffer. Subsequently, cells are washed once in ice-cold phosphate buffered saline (PBS). The cells are then lysed with 0.25 mL RIPA lysis buffer. The PBMCs are placed on ice for 30 minutes and vortexed every 10 minutes. Lysates are frozen and stored at −80° C. prior to further processing.
Lysates are placed in a QIAshredder® tube (QIAGEN, cat #79656) and spun down 30 sec, top speed (13200 rpm) in an Eppendorf benchtop centrifuge (Model 5415 R). The lysate is then transferred to a 1.5 mL clear Eppendorf tube and spun down 10 min at top speed. The supernatent is collected without disturbing the cell debris pellet. The supernatent is dry ice frozen and stored at −80° C. prior to analysis.
The protein concentration in supernatent is measured using BCA assay and the expected protein yield is about 0.5-5 μg/μL, or 125-1250 μg total. Approximately ≥10 μg protein per lane is loaded for western blotting (IRF4, IKZF3, etc.) using antibodies against the human proteins.
Membranes are immunblotted with anti-Aiolos (Santa Cruz Biotechnology, Dallas, Tex.), anti-Ikaros (Millipore, Billerica, Mass.) and anti-Actin (Sigma, St. Louis, Mo.; or LI-COR Biosciences, Lincoln, Nebr.) and secondary antibodies (LI-COR Biosciences, Lincoln, Nebr.). The blots are analyzed on Odyssey imager (LI-COR Biosciences, Lincoln, Nebr.).

[3] = test system: TMD8 (ABC) or Karpas 422 (GCB) cells; assay: competition with lenalidomide for CRBN, 3H-thymidine proliferation; format: cell-based; conditions: TMD8 or Karpas 422; co-treatment with 10 μM lenalidomide; competition of binding to the CRBN complex
Aiolos, Ikaros, ZFP91 [4] = assay: CRBN dependence of ZFP91 reduction in U266 cells, Western blot; format: cell-based; conditions: 6 hour
Procedure: U266 cells were transduced with inducible shRNA constructs targeting CRBN or targeting luciferase as control. Cells were grown in the presence or in the absence of 10 ng/ml Doxycycline, and in the presence or in the absence of 1 μM pomalidomide. Cells were harvested and were treated in cell lysis buffer to generate cell lysates. Proteins from cell lysate were separated by gel electrophoresis and transferred to nitrocellulose membranes. Immunoblots were then probed with antibodies recognizing Aiolos, CRBN, Ikaros, ZFP91, IRF4, IFIT1, IFIT3, P-STAT1, and β-actin (Li-Cor).
Cells were harvested, and lysates were run on 10% SDS-PAGE and immunoblotted with the appropriate antibodies.
MG132 activates c-Jun N-terminal kinase (JNK1), which initiates apoptosis. […] MLN4924 is a NAE1 inhibitor that blocks the activity of Cullin Ring Ligases (CRLs), such as CRL4^CRBN. […] Cells were harvested and lysates were run on 10% SDS-PAGE, transferred to nitrocellulose and immunoblotted with the corresponding antibodies.

IFN pathway = assay: effect on IFN pathway (FIG. 13); format: cell-based

## Cc1nc2cccc(N)c2c(=O)n1C1CCC(=O)NC1=O (stereo not drawn) [Compound A, 3-(5-amino-2-methyl-4-oxo-4H-quinazolin-3-yl)-piperidine-2,6-dione]
Aiolos, Ikaros, ZFP91 [1]
  levels of Aiolos, Ikaros, and ZFP91: reduced
ABC-DLBCL cell line; 10 uM each, log2 ratios vs DMSO
  overall effect on protein abundance compared to lenalidomide: generally stronger effect
ABC-DLBCL cell line; 10 uM each, r2=0.752, intercept 0.03
  gradient of regression line, log2 ratios of lenalidomide and Compound A plotted against each other: 1.45
ABC-DLBCL cell line; ABC-DLBCL cell line, 10 uM, vs DMSO
  effect on CSNK1A1 protein: does not appear to affect
IRF7, IFN response; FIG. 10A
  IFN response gene expression: up-regulates
IRF7, IFN response; U2932 (ABC), Western blot
  IRF7 protein expression: upregulates
[2]; DLBCL cell lines, 1 μM or 10 μM, within 72 hours
  IRF4 levels: reduce
[2]; Karpas 422 (GCB) and TMD8 (ABC), 10 μM, 1, 6 or 12 hours, vs DMSO
  Aiolos levels: decrease
[2]; WSU-DLCL2 (GCB) and OCI-LY10 (ABC), 10 μM, 1, 6 or 12 hours, vs DMSO
  Aiolos and Ikaros levels: decreasing
[2]; nine GCB and ABC DLBCL cell lines, 1 μM or 10 μM, 72 hours
  CRBN levels: remained constant
[2]; nine GCB and ABC DLBCL cell lines, 1 μM or 10 μM, 72 hours, vs DMSO
  Aiolos and Ikaros levels: decreasing
[3]
  anti-proliferative effects on co-treatment with lenalidomide: blocks anti-proliferative effects of Compound A
Aiolos, Ikaros, ZFP91 [4]
  destruction of Aiolos, Ikaros, and ZFP91 (CRBN dependent pathway): induced
IFN pathway; FIG. 13A
  IFIT1, IFIT3, DDX58, XAF1, IFIH1, and OAS3 protein expression: upregulates
IFN pathway; FIG. 13B
  DDX58, IFI27, IFIT1, IFIT3, DDX58, and XAF1 gene expression: upregulates
IFN pathway; FIG. 13C
  ISG15 and OAS3 gene expression: upregulates
IFN pathway; FIG. 13E
  IRF changes: induces
IFN pathway; FIG. 13F
  IFIT1 and IFIT3 protein expression: upregulates
  IKKE protein level: reduces
  TBK1 phosphorylation (TBK1-PO4): upregulates
IFN pathway; FIG. 13G
  levels of STAT or phosphorylated STAT: induces changes
